# Data as given in patent US20230157996A1, “SMALL-MOLECULE INHIBITOR TARGETING EB VIRUS NUCLEAR ANTIGEN PROTEIN, PREPARATION METHOD AND USE THEREOF” (priority 2020, published 2023).
# System: C666-1 cells
# Test: C666-1 cell viability single concentration (50 μM) inhibition rate (Resazurin)
# Format: cell-based
# Details: 50 μM compound, 72 hours, C666-1 cells
# Outline: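 Resazurin fluorescence (560/590 nm, 3 h development) gave the proliferation inhibition rate, normalised to DMSO-treated and cell-free blank wells. Compound was tested at a single 50 μmol/L final concentration on C666-1 cells for 72 h at 37° C, with duplicate wells, after 24 h seeding.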
row,SMILES,"C666-1 cell viability single concentration (50 μM) inhibition rate, Ratio* (Inh %)"
1,"O=C([O-])c1cccc(N2CC(Oc3ccc([N+](=O)[O-])cc3)C2)c1-n1cccc1.[Na+] [Example 116, Sodium 3-(3-(4-nitrophenoxy)azetidin-1-yl)-2-(1H-pyrrol-1-yl)benzoate]",+ (*Inh %: <10% +)

# Same assay, conditions: Homo sapiens, C6661, 72 h, 50 μM compound, 72 hours, C666-1 cells; read-out: C666-1 cell viability single concentration (50 μM) inhibition rate, Ratio* (Inh %)
row,SMILES,inhibition at 50 µM [%]
1,"CCCNC(=S)Nc1ccc(OC2CN(c3cccc(C(=O)OC)c3-n3cccc3)C2)cc1 [Example 117, Methyl 3-(3-(4-(3-propylthioureido)phenoxy)azetidin-1-yl)-2-(1H-pyrrol-1-yl)benzoate]",> 50
2,"COC(=O)c1cccc(N2CC(Oc3ccc(NC(=S)Nc4ccc(C(F)(F)F)cc4)cc3)C2)c1-n1cccc1 [Example 118, Methyl 2-(1H-pyrrol-1-yl)-3-(3-(4-(3-(4-(trifluoromethyl)phenyl)thioureido)phenoxy)azetidin-1-yl)benzoate]",> 50
3,"COC(=O)c1cccc(N2CC(Oc3ccc(NC(=S)Nc4ccccc4OC)cc3)C2)c1-n1cccc1 [Example 119, Methyl 3-(3-(4-(3-(2-methoxyphenyl)thioureido)phenoxy)azetidin-1-yl)-2-(1H-pyrrol-1-yl)benzoate]",10 to 30
4,"COC(=O)c1cccc(N2CC(Oc3ccc(NC(C)=O)cc3)C2)c1-n1cccc1 [Example 120, Methyl 3-(3-(4-acetylaminophenoxy)azetidin-1-yl)-2-(1H-pyrrol-1-yl)benzoate]",10 to 30
5,"CC(=O)Nc1ccc(OC2CN(c3cccc(C(=O)O)c3-n3cccc3)C2)cc1 [Example 121, 3-(3-(4-acetylaminophenoxy)azetidin-1-yl)-2-(1H-pyrrol-1-yl)benzoic acid]",< 10
6,"COC(=O)c1cccc(N2CC(Oc3ccc(NC(=O)c4cccs4)cc3)C2)c1-n1cccc1 [Example 122, Methyl 2-(1H-pyrrol-1-yl)-3-(3-(4-(thiophene-2-formamido)phenoxy)azetidin-1-yl)benzoate]",10 to 30
7,"O=C(Nc1ccc(OC2CN(c3cccc(C(=O)O)c3-n3cccc3)C2)cc1)c1cccs1 [Example 123, 2-(1H-pyrrol-1-yl)-3-(3-(4-(thiophene-2-formamido)phenoxy)azetidin-1-yl)benzoic acid]",< 10
8,"COC(=O)c1cccc(N2CC(Oc3ccc(N(S(C)(=O)=O)S(C)(=O)=O)cc3)C2)c1-n1cccc1 [Example 124, Methyl 3-(3-(4-(N-(mesyl)methylsulfonamido)phenoxy)azetidin-1-yl)-2-(1H-pyrrol-1-yl)benzoate]",10 to 30
9,"CS(=O)(=O)Nc1ccc(OC2CN(c3cccc(C(=O)O)c3-n3cccc3)C2)cc1 [Example 125, 3-(3-(4-(methylsulfonamido)phenoxy)azetidin-1-yl)-2-(1H-pyrrol-1-yl)benzoic acid]",< 10
10,"COC(=O)c1cccc(N2CC(Oc3ccc(NS(=O)(=O)C4CC4)cc3)C2)c1-n1cccc1 [Example 126, Methyl 3-(3-(4-(cyclopropylsulfonamido)phenoxy)azetidin-1-yl)-2-(1H-pyrrol-1-yl)benzoate]",> 50
11,"O=C(O)c1cccc(N2CC(Oc3ccc(NS(=O)(=O)C4CC4)cc3)C2)c1-n1cccc1 [Example 127, 3-(3-(4-(cyclopropylsulfonamido)phenoxy)azetidin-1-yl)-2-(1H-pyrrol-1-yl)benzoic acid]",< 10
12,"COC(=O)c1cccc(N2CC(Oc3ccc(NC(=O)Nc4ccc(Cl)cc4)cc3)C2)c1-n1cccc1 [Example 128, Methyl 3-(3-(4-(3-(4-chlorophenyl)ureido)phenoxy)azetidin-1-yl)-2-(1H-pyrrol-1-yl)benzoate]",< 10
13,"O=C(Nc1ccc(Cl)cc1)Nc1ccc(OC2CN(c3cccc(C(=O)O)c3-n3cccc3)C2)cc1 [Example 129, 3-(3-(4-(3-(4-chlorophenyl)ureido)phenoxy)azetidin-1-yl)-2-(1H-pyrrol-1-yl)benzoic acid]",< 10
14,"COC(=O)c1cccc(N2CC(Oc3ccc(NC(=O)NC4CCCCC4)cc3)C2)c1-n1cccc1 [Example 130, Methyl 3-(3-(4-(3-cyclohexylureido)phenoxy)azetidin-1-yl)-2-(1H-pyrrol-1-yl)benzoate]",< 10
15,"O=C(Nc1ccc(OC2CN(c3cccc(C(=O)O)c3-n3cccc3)C2)cc1)NC1CCCCC1 [Example 131, 3-(3-(4-(3-cyclohexylureido)phenoxy)azetidin-1-yl)-2-(1H-pyrrol-1-yl)benzoic acid]",< 10
16,"CCCCCCNC(=O)Nc1ccc(OC2CN(c3cccc(C(=O)OC)c3-n3cccc3)C2)cc1 [Example 132, Methyl 3-(3-(4-(3-hexylureido)phenoxy)azetidin-1-yl)-2-(1H-pyrrol-1-yl)benzoate]",< 10
17,"COC(=O)c1cccc(N2CC(Oc3ccc(NC(=O)Nc4cccc(Cl)c4)cc3)C2)c1-n1cccc1 [Example 133, Methyl 3-(3-(4-(3-(3-chlorophenyl)ureido)phenoxy)azetidin-1-yl)-2-(1H-pyrrol-1-yl)benzoate]",> 50
18,"O=C(Nc1ccc(OC2CN(c3cccc(C(=O)O)c3-n3cccc3)C2)cc1)Nc1cccc(Cl)c1 [Example 134, 3-(3-(4-(3-(3-chlorophenyl)ureido)phenoxy)azetidin-1-yl)-2-(1H-pyrrol-1-yl)benzoic acid]",10 to 30
19,"COC(=O)c1cccc(N2CC(Oc3ccc(NC(=O)Nc4ccccc4Cl)cc3)C2)c1-n1cccc1 [Example 135, Methyl 3-(3-(4-(3-(2-chlorophenyl)ureido)phenoxy)azetidin-1-yl)-2-(1H-pyrrol-1-yl)benzoate]",< 10

row,SMILES,inhibition at 50 µM [%]
1,"O=C(Nc1ccc(OC2CN(c3cccc(C(=O)O)c3-n3cccc3)C2)cc1)Nc1ccccc1Cl [Example 136, 3-(3-(4-(3-(2-chlorophenyl)ureido)phenoxy)azetidin-1-yl)-2-(1H-pyrrol-1-yl)benzoic acid]",< 10
2,"COC(=O)c1cccc(N2CC(Oc3ccc(NC(=O)Nc4cccc(C#N)c4)cc3)C2)c1-n1cccc1 [Example 137, Methyl 3-(3-(4-(3-(3-cyanophenyl)ureido)phenoxy)azetidin-1-yl)-2-(1H-pyrrol-1-yl)benzoate]",> 50
3,"N#Cc1cccc(NC(=O)Nc2ccc(OC3CN(c4cccc(C(=O)O)c4-n4cccc4)C3)cc2)c1 [Example 138, 3-(3-(4-(3-(3-cyanophenyl)ureido)phenoxy)azetidin-1-yl)-2-(1H-pyrrol-1-yl)benzoic acid]",< 10
4,"COC(=O)c1cccc(N2CC(OCc3ccc(OC)cc3)C2)c1-n1cccc1 [Example 139, Methyl 3-(3-((4-methoxybenzyl)oxy)azetidin-1-yl)-2-(1H-pyrrol-1-yl)benzoate]",< 10
5,COC(=O)c1cccc(N2CC(OCc3cscn3)C2)c1-n1cccc1 [Example 140],10 to 30
6,O=C(O)c1cccc(N2CC(OCc3cscn3)C2)c1-n1cccc1 [Example 141],< 10
7,COC(=O)c1cccc(N2CC(OCc3cnccn3)C2)c1-n1cccc1 [Example 142],< 10
8,O=C(O)c1cccc(N2CC(OCc3cnccn3)C2)c1-n1cccc1 [Example 143],< 10
9,"COC(=O)c1cccc(N2CC(OCC(=O)Nc3ccccc3)C2)c1-n1cccc1 [Example 144, Methyl 3-(3-(2-oxo-2-(phenylamino)ethoxy)azetidin-1-yl)-2-(1H-pyrrol-1-yl)benzoate]",10 to 30
10,"O=C(COC1CN(c2cccc(C(=O)O)c2-n2cccc2)C1)Nc1ccccc1 [Example 145, 3-(3-(2-oxo-2-(phenylamino)ethoxy)azetidin-1-yl)-2-(1H-pyrrol-1-yl)benzoic acid]",< 10
11,"O=C(O)c1cccc(N2CC(OC(=S)Nc3ccc(Cl)cc3)C2)c1-n1cccc1 [Example 148, 3-(3-(((4-chlorophenyl)thiocarbamoyl)oxy)azetidin-1-yl)-2-(1H-pyrrol-1-yl)benzoic acid]",< 10
12,"COC(=O)c1cccc(N2CC(OC(=O)NC3CCCCC3)C2)c1-n1cccc1 [Example 149, Methyl 3-(3-((cyclohexylcarbamoyl)oxy)azetidin-1-yl)-2-(1H-pyrrol-1-yl)benzoate]",10 to 30
13,"O=C(NC1CCCCC1)OC1CN(c2cccc(C(=O)O)c2-n2cccc2)C1 [Example 150, 3-(3-((cyclohexylcarbamoyl)oxy)azetidin-1-yl)-2-(1H-pyrrol-1-yl)benzoic acid]",< 10
14,"COC(=O)c1cccc(N2CC(OC(=O)Nc3ccc(C4CNCCO4)c(F)c3)C2)c1-n1cccc1 (stereo not drawn) [Example 151, Methyl 3-(3-(((3-fluoro-4-(morpholin-2-yl)phenyl)carbamoyl)oxy)azetidin-1-yl)-2-(1H-pyrrol-1-yl)benzoate]",10 to 30
15,"COC(=O)c1cccc(N2CC(OC(=O)NC3CC3)C2)c1-n1cccc1 [Example 155, Methyl 3-(3-((cyclopropylcarbamoyl)oxy)azetidin-1-yl)-2-(1H-pyrrol-1-yl)benzoate]",10 to 30
16,"COC(=O)c1cccc(N2CC(OC(=S)Nc3ccc(Br)cc3)C2)c1-n1cccc1 [Example 156, Methyl 3-(3-(((4-bromophenyl)thiocarbamoyl)oxy)azetidin-1-yl)-2-(1H-pyrrol-1-yl)benzoate]",30 to 50
17,"O=C(O)c1cccc(N2CC(OC(=S)Nc3ccc(Br)cc3)C2)c1-n1cccc1 [Example 157, 3-(3-(((4-bromophenyl)thiocarbamoyl)oxy)azetidin-1-yl)-2-(1H-pyrrol-1-yl)benzoic acid]",< 10
18,"COC(=O)c1cccc(N2CC(OC(=S)Nc3ccc(OC)cc3)C2)c1-n1cccc1 [Example 158, Methyl 3-(3-(((4-methoxyphenyl)thiocarbamoyl)oxy)azetidin-1-yl)-2-(1H-pyrrol-1-yl)benzoate]",> 50
19,"COc1ccc(NC(=S)OC2CN(c3cccc(C(=O)O)c3-n3cccc3)C2)cc1 [Example 159, 3-(3-(((4-methoxyphenyl)thiocarbamoyl)oxy)azetidin-1-yl)-2-(1H-pyrrol-1-yl)benzoic acid]",< 10
